Reference: US20080069857A1, “Compositions And Methods For Inhibiting Adhesions” (priority 2006, published 2008)
Converted amounts (≈) assume the structure as drawn. Values belong to the molecule of their own block, whether it stands above or below them.

Columns and labels:
[1] = Budesonide solubility in saline; format: physicochemical; details: saline or isotonic, thermodynamic from solid, 37° C., read-out: saturation solubility in saline
Description: The maximum solubility of budesonide in saline was determined as described (Gennaro A R, editor. Remington: The Science and Practice of Pharmacy. 20th ed. Philadelphia, Pa.: Lippincott Williams & Wilkins, 2000, which is incorporated herein by reference). First, increasing amounts of budesonide were mixed with saline to provide budesonide concentration in the system from 25 mg/ml to 0.002 mg/ml. The mixtures were constantly stirred at 37° C. for 24 hours, and then centrifuged at 12,000 rpm for 5 minutes to separate the solution phase from the solid phase. The budesonide concentrations in the solution phase were measured by High Performance Liquid Chromatography (HPLC). The saturation solubility of budesonide in saline was determined by extrapolating the line segment, of which slope was 0, to y-axis.
In a separate experiment, budesonide-saline 0.13 mg/ml was prepared as described above, divided into 1 ml aliquots, and incubated at 37° C. with constant stirring. At timed intervals, an aliquot of budesonide-saline was taken and centrifuged at 12,000 rpm for 5 minutes to separate 0.8 ml of supernatant for HPLC analysis. The remaining 0.2 ml, potentially containing precipitated budesonide, was dissolved in 0.8 ml acetonitrile and analyzed with HPLC. […]

[2] = United States Pharmacopoeia classification "practically insoluble"; cited from earlier work
[3] = test system: TNF-α production by primary mouse macrophages; assay: TNF-α production by LPS-challenged macrophages; format: cell-based, mouse (C57/B16); details: macrophages stimulated with LPS
Description: (§1) C57/B16 mice were purchased from Taconic (Hudson, N.Y.). 2 ml of 3% (w/v) sterile thioglycollate solution (DIFCO Laboratories, Detroit, Mich.) was injected into the peritoneal cavity. Four days after injection, the mice were euthanized by CO2, and 6 ml of ice-cold PBS buffer containing 5 mM EDTA was injected. After agitating the peritoneum with forceps, a macrophage-containing solution was aspirated. The cells were placed immediately into iced DMEM on ice prior to washing, counting and plating. Approximately 10^7 cells per mouse were obtained.
(§2) Non-adherent cells were removed by washing with 200 μl/well PBS buffer. Then 100 μl of DMEM with 10% FBS and 100 μl of medium pre-incunated with hydrogels (Sec. 2.2.9), or known concentrations of dexamethasone, were added to the adherent macrophages in each well. After incubation for 24 h at 37° C. in 5% CO2, 25 μl of 900 ng/ml of LPS (Sigma, St. Louis, Mo.; Catalog #L-4391) was added to each well to a final concentration of 100 ng/ml. After incubation for a further 16 h, the media were collected and stored at −80° C. until analyzed. The concentration of TNF-α, IL-6, and dexamethasone in those media were measured by ELISA (enzyme-linked immunosorbent assay). The ELISA kits for TNF-α, IL-6, and dexamethasone were purchased from R&D Systems (DuoSet, Cat DY406), BioLegend (Mouse IL-6 ELISA MAX™ Set (Deluxe)), and Neogen Corporation, respectively.

[4] = test system: IL-6 production by primary mouse macrophages; assay: IL-6 production by LPS-challenged macrophages; format: cell-based, mouse (C57/B16); details: macrophages stimulated with LPS
Description: as §1, §2

[5] = test system: Human mesothelial cells (ATCC, CRL-9444)
Description: In vitro cell viability assay: Human mesothelial cells (ATCC, CRL-9444) were cultured in Medium 199, containing Earle's salts, L-glutamine, and 2.2 g/L sodium bicarbonate and supplemented with 3.3 nM epidermal growth factor, 400 nM hydrocortisone, 870 nM insulin, 20 mM HEPES, and 10% fetal bovine serum. Cells from passage 5 through 25 were used for the following studies. Mesothelial cells were seeded into 24-well plates at a density of 50,000 cells per well in 1 ml of culture medium. […] After varying periods of incubation in the presence of the hydrogels, cell viability was assessed with an MTT assay kit (Promega CellTiter 96 Non-Radioactive Cell Proliferation Assay).
Cell proliferation assay. […] After varying periods of incubation in the presence of the hydrogels, cell viability was assessed with an MTT assay kit (Promega CellTiter 96 Non-Radioactive Cell Proliferation Assay).
Mesothelial cells were grown and maintained in a complete growth medium (GIBCO: Medium199 with Earle's BSS, 0.75 mM L-glutamine and 1.25 g/L sodium bicarbonate supplemented with 3.3 nM epidermal growth factor, 400 nM hydrocortisone, 870 nM insulin, 20 mM HEPES and 10% fetal bovine serum) at 37° C. in 5% CO2. […] The purple formazan produced by active mitochondria was solubilized using 1 ml detergent solution and then read at 570 nm by plate reader (Molecular Devices: SpectraMax 384, Union City, Calif.). […]

peritoneal adhesions = details: 1 week after second laparotomy
Description: Repeated laparotomy model. Female albino rabbits (Oryctolagus cuniculus; New Zealand White) (3±0.5 kg) were used. The first laparotomy and post-operation care were performed as described above. A 2nd laparotomy was performed after 1 week. On examination prior to the 2nd laparotomy, animals were excluded from the 2nd laparotomy for the following: (i) loss of more than 15% of body weight since the 1st laparotomy; (ii) poor feeding. On laparotomy, adhesions were scored as previously then lysed (cut). The previously excised abdominal wall was re-abraded 50 times unidirectionally, and the cecum surface between 6-12th haustra was re-abraded 150-200 times bidirectionally using a sterile brush until a bleeding bed was obtained.
Thirty animals were assigned randomly to experimental groups and test materials were applied on the injured areas. The operator was blinded as to the nature of the materials. HA-ADH and HA-CHO were sterilized by germicidal UV illumination for 2 hours and dissolved in 5 ml sterile saline, respectively. Ten ml of gel were applied on the injured sites with a dual valve applicator as previously. As controls, a group of animals received no treatment, and another group received 10 ml saline.
After treatment of the injured areas, the peritoneum and abdominal wall were closed with 2-0 Ethilon and 3-0 Dexon, respectively. The skin was closed with 2-0 Ethilon. Animals were allowed to awaken and had food and water ad libitum. Buprenorphine 0.02-0.03 mg/kg was administered sc 8-12 hours interval until 48 hours post-surgery. The animals were sacrificed 1 week after the second laparotomy by intravenous injection of sodium pentobarbital. Adhesions were scored in two ways. (i) Quality of adhesions was scored as follows: Adhesions were scored using a modification of a reported method (Burns J W, Skinner K, Colt J, Sheidlin A, Bronson R, Yaacobi Y, et al. Prevention of tissue injury and postsurgical adhesions by precoating tissues with hyaluronic acid solutions. Journal of Surgical Research 1995;59:644-652, which is incorporated herein by reference). Score 0=no adhesion, score 1=tissue adherence that would separate with gravity, score 2=tissue adherence separable by blunt dissection, score 3=adhesion requiring sharp dissection. If there were multiple adhesions of different scores, we chose the higher one as a representative score. (ii) Area of score 2 or 3 adhesions was measured for quantitative evaluation of the adhesions. The location of adhesions (whether they include suture sites or not; location and number of cecal haustra involved in the adhesion) and weight changes were recorded. Tissues recovered from the necropsy were fixed in 10% formalin, embedded in paraffin, sectioned, and stained with hematoxylin and eosin for histological examination.
Peritoneal adhesions were induced in female albino rabbits (Oryctolagus cuniculus; New Zealand White) (3±0.5 kg) through repeated laparotomies as described in our previous study [tPA]. Briefly, cecum abrasion and excision of abdominal wall were performed to induce de novo adhesions (Yeo et al. In situ cross-linkable hyaluronic acid hydrogels prevent post-operative abdominal adhesions in a rabbit model. Biomaterials 2006;27:4698-4705, which is incorporated herein by reference). A second laparotomy was performed after 1 week to cut the adhesions and introduce additional injuries to the same locations as those injured in the first laparotomy. […]

solubility at 24 h [1]: 27 µg/mL (≈ 62.7 µM)
Molecule: CCCC1O[C@@H]2C[C@H]3[C@@H]4CCC5=CC(=O)C=C[C@]5(C)[C@H]4[C@@H](O)C[C@]3(C)[C@]2(C(=O)CO)O1 (some centres unmarked) [Budesonide]
solubility in water [2]: < 100 µg/mL

Molecule: C[C@@H]1C[C@H]2[C@@H]3CCC4=CC(=O)C=C[C@]4(C)[C@@]3(F)[C@@H](O)C[C@]2(C)[C@@]1(O)C(=O)CO [Dexamethasone]
concentrations with no effect on production of TNF-α [3]: lower than 10^−9 M
concentrations with no effect on production of IL-6 [4]: lower than 10^−9 M

Molecule: HA-adipic dihydrazide [HA-ADH]
effect of polymers on mesothelial cell viability (MTT) [5]: small reductions in cell viability

Molecule: hyaluronic acid [HA, reference compound]
effect of polymers on mesothelial cell viability (MTT) [5]: small reductions in cell viability

Molecule: tPA: bolus of tPA solution (2.2 mg Activase) in the absence of HAX
Qualitative (score) % frequency, score 0 (peritoneal adhesions; 10 ml applied on injured sites): 25%
Qualitative (score) % frequency, score 1 (peritoneal adhesions; 10 ml applied on injured sites): 0%
Qualitative (score) % frequency, score 2 (peritoneal adhesions; 10 ml applied on injured sites): 0%
Qualitative (score) % frequency, score 3 (peritoneal adhesions; 10 ml applied on injured sites): 75%
Quantitative (adhesion area), median (peritoneal adhesions; area of score 2 or 3 adhesions): 2.4 cm^2
